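Each compound was tested at five concentrations against cells in 96-well plates for 48 hours. GI50 is the concentration that inhibits growth by half.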 Active and inactive are the calls of the source. Rule as the data show it: active = GI50 up to about 1.1 µM and inactive = higher.
Experiments:
Test in all cases: DTP human tumour cell line panel, 48 h
[1] = system: COLO 205
[2] = system: HCC 2998
[3] = system: HCT-116
[4] = system: HCT-15
[5] = system: HL-60
[6] = system: HT-29
[7] = system: K562
[8] = system: KM-20L2
[9] = system: KM12
[10] = system: LOX IMVI
[11] = system: NCI-H226
[12] = system: RPMI-8226
[13] = system: RXF 393
[14] = system: SN12C
[15] = system: SNB-19
[16] = system: SR
[17] = system: TK-10
[18] = system: UACC-257
[19] = system: SK-MEL-2
[20] = system: Hs-578T

Compound: C[C@H](OCc1ccccc1)C(=O)N1CCS(=O)(=O)N2CCC[C@H]2C1=O
- GI50 [1]: > 100 µM (inactive)
- GI50 [2]: > 100 µM (inactive)
- GI50 [3]: > 100 µM (inactive)
- GI50 [4]: > 100 µM
- GI50 [5]: > 100 µM (inactive)
- GI50 [6]: > 100 µM (inactive)
- GI50 [7]: > 100 µM (inactive)
- GI50 [8]: > 100 µM (inactive)
- GI50 [9]: > 100 µM (inactive)
- GI50 [10]: > 100 µM (inactive)
- GI50 [11]: > 100 µM (inactive)
- GI50 [12]: > 100 µM (inactive)
- GI50 [13]: > 100 µM (inactive)
- GI50 [14]: > 100 µM (inactive)
- GI50 [15]: > 100 µM (inactive)
- GI50 [16]: > 100 µM (inactive)
- GI50 [17]: > 100 µM (inactive)
- GI50 [18]: > 100 µM (inactive)

Compound: CC[C@H](C)C(=O)O[C@H]1C[C@@H](C)C=C2C=C[C@H](C)[C@H](CC[C@@H]3C[C@@H](O)CC(=O)O3)[C@H]21 [LOVASTATIN]
- GI50 [1]: 5.73 µM (inactive)
- GI50 [2]: 15.1 µM (inactive)
- GI50 [4]: 3.12 µM
- GI50 [5]: 8.83 µM (inactive)
- GI50 [6]: 11.6 µM (inactive)
- GI50 [7]: 19.5 µM (inactive)
- GI50 [8]: > 30 µM (inactive)
- GI50 [9]: > 30 µM (inactive)
- GI50 [10]: 1.58 µM (inactive)
- GI50 [11]: 11.9 µM (inactive)
- GI50 [12]: > 30 µM (inactive)
- GI50 [13]: 2.52 µM (inactive)
- GI50 [19]: 13.2 µM (inactive)
- GI50 [14]: 1.71 µM (inactive)
- GI50 [16]: 2.11 µM (inactive)
- GI50 [17]: 16.2 µM (inactive)
- GI50 [18]: 20 µM (inactive)

Compound: CC[N+]1(C)CCC(O)(/C=C/c2ccccc2)C(C(=O)/C=C/c2ccccc2)C1 (configuration not stated)
- GI50 [1]: 3.44 µM (inactive)
- GI50 [2]: 16.7 µM (inactive)
- GI50 [3]: 6 µM (inactive)
- GI50 [4]: 4.54 µM
- GI50 [5]: 2.31 µM (inactive)
- GI50 [6]: 7.59 µM (inactive)
- GI50 [20]: 28.4 µM (inactive)
- GI50 [7]: 2.7 µM (inactive)
- GI50 [8]: 18.3 µM (inactive)
- GI50 [9]: 3.71 µM (inactive)
- GI50 [10]: 2.79 µM (inactive)
- GI50 [11]: 14.7 µM (inactive)
- GI50 [12]: 0.706 µM (active)
- GI50 [13]: 7.62 µM (inactive)
- GI50 [19]: 19.8 µM (inactive)
- GI50 [14]: 7.23 µM (inactive)
- GI50 [15]: 15.3 µM (inactive)
- GI50 [16]: 2.34 µM (inactive)
- GI50 [17]: 7.28 µM (inactive)
- GI50 [18]: 10.2 µM (inactive)

Compound: Cc1ccccc1C1=C/C(=C(\SS/C(C(=O)c2ccc(OCC(=O)O)c(Cl)c2Cl)=C2\C=C(c3ccccc3C)SS2)C(=O)c2ccc(OCC(=O)O)c(Cl)c2Cl)SS1
- GI50 [1]: 12.2 µM (inactive)
- GI50 [2]: 39.4 µM (inactive)
- GI50 [3]: 21.7 µM (inactive)
- GI50 [4]: 24 µM
- GI50 [5]: 2.96 µM (inactive)
- GI50 [6]: 33.1 µM (inactive)
- GI50 [20]: 21.2 µM (inactive)
- GI50 [7]: 8.65 µM (inactive)
- GI50 [8]: 37.9 µM (inactive)
- GI50 [9]: 22.3 µM (inactive)
- GI50 [10]: 6.82 µM (inactive)
- GI50 [11]: 17.9 µM (inactive)
- GI50 [12]: 21.5 µM (inactive)
- GI50 [13]: 22.4 µM (inactive)
- GI50 [19]: 21.4 µM (inactive)
- GI50 [14]: 20.1 µM (inactive)
- GI50 [15]: 22.5 µM (inactive)
- GI50 [16]: 24.1 µM (inactive)
- GI50 [17]: 35.9 µM (inactive)
- GI50 [18]: 29.4 µM (inactive)

Compound: c1ccc(-c2nnc3nn4c(-c5ccccc5)cnnc4c3c2-c2ccccc2)cc1
- GI50 [2]: 48.2 µM (inactive)
- GI50 [3]: 63.4 µM (inactive)
- GI50 [4]: > 100 µM
- GI50 [5]: 3.12 µM (inactive)
- GI50 [6]: 95.3 µM (inactive)
- GI50 [7]: 75 µM (inactive)
- GI50 [8]: 95.3 µM (inactive)
- GI50 [9]: > 100 µM (inactive)
- GI50 [10]: > 100 µM (inactive)
- GI50 [11]: > 100 µM (inactive)
- GI50 [12]: > 100 µM (inactive)
- GI50 [13]: 14.7 µM (inactive)
- GI50 [19]: > 100 µM (inactive)
- GI50 [14]: > 100 µM (inactive)
- GI50 [15]: 25.2 µM (inactive)
- GI50 [16]: > 100 µM (inactive)
- GI50 [17]: 19.2 µM (inactive)
- GI50 [18]: 96.8 µM (inactive)

Compound: C[C@H]1CC[C@H](NC(=O)N(CCCl)N=O)CC1
- GI50 [1]: 32.7 µM (inactive)
- GI50 [2]: 44 µM (inactive)
- GI50 [3]: 39.6 µM (inactive)
- GI50 [4]: 40.6 µM
- GI50 [5]: 14.4 µM (inactive)
- GI50 [6]: 51.2 µM (inactive)
- GI50 [20]: 57.4 µM (inactive)
- GI50 [7]: 34.3 µM (inactive)
- GI50 [8]: 56.4 µM (inactive)
- GI50 [9]: 59.3 µM (inactive)
- GI50 [10]: 13 µM (inactive)
- GI50 [11]: 59 µM (inactive)
- GI50 [12]: 31.6 µM (inactive)
- GI50 [13]: 36 µM (inactive)
- GI50 [19]: 46.5 µM (inactive)
- GI50 [14]: 40.4 µM (inactive)
- GI50 [15]: 38.7 µM (inactive)
- GI50 [16]: 10.6 µM (inactive)
- GI50 [17]: 63.4 µM (inactive)
- GI50 [18]: 46.3 µM (inactive)

Compound: S=P(N1CC1)(N1CC1)N1CC1 [THIOTEPA]
- GI50 [1]: 141 µM (inactive)
- GI50 [2]: 111 µM (inactive)
- GI50 [3]: 116 µM (inactive)
- GI50 [4]: 149 µM
- GI50 [5]: 7.45 µM (inactive)
- GI50 [6]: 159 µM (inactive)
- GI50 [20]: 361 µM (inactive)
- GI50 [7]: 143 µM (inactive)
- GI50 [8]: 175 µM (inactive)
- GI50 [9]: 171 µM (inactive)
- GI50 [10]: 39.6 µM (inactive)
- GI50 [11]: 110 µM (inactive)
- GI50 [12]: 176 µM (inactive)
- GI50 [13]: 101 µM (inactive)
- GI50 [19]: 220 µM (inactive)
- GI50 [14]: 35.5 µM (inactive)
- GI50 [15]: 115 µM (inactive)
- GI50 [17]: 333 µM (inactive)
- GI50 [18]: 134 µM (inactive)

Reference: ChEMBL document CHEMBL1201862, “PubChem BioAssay data set” (2004)
